# Experimental data taken from US20240336566A1, “CRYSTALLINE FORMS OF A COMPOUND FOR THE TARGETED DEGRADATION OF THE ANDROGEN RECEPTOR” (Arvinas Operations, Inc., priority 2023, published 2024).
# Like-named read-outs stand apart in the source and are kept apart here.
# Assay: Solvent solubility screen of Compound A (aliquot addition, HPLC of saturated solutions)
# Assay type: physicochemical
# Design: key to XRPD: A: Amorphous; P1: Pattern 1; P2: Pattern 2; *Poorly crystalline; + p1: some pattern 1 peaks
# Details: for XRPD: solid from solubility screen
# Method: A known volume aliquot (typically 5 volumes) of solvent was added to approximately 5 mg of Compound A. See Table 14 for the selected solvents for the solvent solubility screen.
# Between each addition, the mixture was checked for dissolution and where no dissolution was apparent, the mixture was heated to ca. 40° C. and checked again. This procedure was continued until dissolution was observed or until 100 volumes of solvent had been added.
# Where dissolution was not observed, solids were isolated centrifugally and analyzed by XRPD. The saturated solutions were analyzed by HPLC to obtain the solubility.
compound,measurement,setting,value
"COc1cc(O[C@H]2C(C)(C)[C@H](NC(=O)c3ccc(N4CCC(CN5CCN(c6ccc(C(=O)N[C@H]7CCC(=O)NC7=O)c(F)c6)CC5)CC4)cc3)C2(C)C)ccc1C#N [Compound A, 4-(4-((1-(4-(((1R,3R)-3-(4-cyano-3-methoxyphenoxy)-2,2,4,4-tetramethylcyclobutyl)carbamoyl)phenyl)piperidin-4-yl)methyl)piperazin-1-yl)-N—((S)-2,6-dioxopiperidin-3-yl)-2-fluorobenzamide]",solubility,"1,4-dioxane, organic solvent or mixture, thermodynamic from solid, 1,4-Dioxane, read-out: Approximate Solubility",100 mg/mL
same,solubility,"1,4-dioxane, organic solvent or mixture, thermodynamic from solid, 1,4-Dioxane, read-out: Approximate solubility",~100 mg/mL
same,solubility,"1,4-dioxane, organic solvent or mixture, thermodynamic from solid, 1,4-dioxane, read-out: solubility",> 100 mg/mL
same,solubility,"1-butanol, 40 °C, organic solvent or mixture, thermodynamic from solid, 1-Butanol, read-out: Approximate Solubility",0.188 mg/mL
same,solubility,"1-propanol, 40 °C, organic solvent or mixture, thermodynamic from solid, 1-Propanol, read-out: Approximate Solubility",0.232 mg/mL
same,solubility,"2-Butanone (MEK), 40 °C, organic solvent or mixture, thermodynamic from solid, 2-Butanone (MEK), read-out: Approximate Solubility",2.13 mg/mL
same,solubility,"2-Ethoxyethanol, 40 °C, organic solvent or mixture, thermodynamic from solid, 2-Ethoxyethanol, read-out: Approximate Solubility",1.55 mg/mL
same,solubility,"2-Methyl THF, 40 °C, organic solvent or mixture, thermodynamic from solid, 2-Methyl THF, read-out: Approximate Solubility",2.89 mg/mL
same,solubility,"2-Propanol, 40 °C, organic solvent or mixture, thermodynamic from solid, 2-Propanol, read-out: Approximate Solubility",0.205 mg/mL
same,solubility,"2-propanol:water (90:10% v/v), 40 °C, organic solvent or mixture, thermodynamic from solid, 2-Propanol:Water (90:10% v/v), read-out: Approximate Solubility",0.186 mg/mL
same,solubility,"3-Methyl-1-butanol, 40 °C, organic solvent or mixture, thermodynamic from solid, 3-Methyl-1-butanol, read-out: Approximate Solubility",1.22 mg/mL
same,solubility,"Acetone, 40 °C, organic solvent or mixture, thermodynamic from solid, Acetone, read-out: Approximate Solubility",2.73 mg/mL
same,solubility,"Acetonitrile, 40 °C, organic solvent or mixture, thermodynamic from solid, Acetonitrile, read-out: Approximate Solubility",0.995 mg/mL
same,solubility,"Anisole, organic solvent or mixture, thermodynamic from solid, Anisole, read-out: Approximate Solubility",25 mg/mL
same,solubility,"Butyl acetate, 40 °C, organic solvent or mixture, thermodynamic from solid, Butyl acetate, read-out: Approximate Solubility",0.209 mg/mL
same,solubility,"DCM, organic solvent or mixture, thermodynamic from solid, DCM, read-out: Approximate solubility",~50 mg/mL
same,solubility,"DCM, organic solvent or mixture, thermodynamic from solid, DCM, read-out: solubility",50 to 100 mg/mL
same,solubility,"DCM:methanol (50:50% v/v), organic solvent or mixture, thermodynamic from solid, DCM:methanol (50:50% v/v), read-out: solubility",50 to 100 mg/mL
same,solubility,"DCM:methanol (75:25% v/v), organic solvent or mixture, thermodynamic from solid, DCM:methanol (75:25% v/v), read-out: solubility",> 100 mg/mL
same,solubility,"DMA, organic solvent or mixture, thermodynamic from solid, DMA, read-out: solubility",> 100 mg/mL
same,solubility,"DMF, organic solvent or mixture, thermodynamic from solid, DMF, read-out: solubility",> 100 mg/mL
same,solubility,"DMSO, organic solvent or mixture, thermodynamic from solid, DMSO, read-out: solubility",> 100 mg/mL
same,solubility,"Dichloromethane, organic solvent or mixture, thermodynamic from solid, Dichloromethane, read-out: Approximate Solubility",50 mg/mL
same,solubility,"N,N′-dimethylacetamide, organic solvent or mixture, thermodynamic from solid, N,N′-Dimethylacetamide, read-out: Approximate Solubility",100 mg/mL
same,solubility,"N,N′-dimethylformamide, organic solvent or mixture, thermodynamic from solid, N,N′-Dimethylformamide, read-out: Approximate Solubility",100 mg/mL
same,solubility,"N-methylpyrrolidone, organic solvent or mixture, thermodynamic from solid, N-Methylpyrrolidone, read-out: Approximate Solubility",50 mg/mL
same,solubility,"NMP, organic solvent or mixture, thermodynamic from solid, NMP, read-out: solubility",50 to 100 mg/mL
same,solubility,"THF, organic solvent or mixture, thermodynamic from solid, THF, read-out: Approximate solubility",~50 mg/mL
same,solubility,"THF, organic solvent or mixture, thermodynamic from solid, THF, read-out: solubility",50 to 100 mg/mL
same,solubility,"THF:water (98:2% v/v), organic solvent or mixture, thermodynamic from solid, THF:water (98:2% v/v), read-out: solubility",50 to 100 mg/mL
same,solubility,"acetone:water (90:10% v/v), 40 °C, organic solvent or mixture, thermodynamic from solid, Acetone:Water (90:10% v/v), read-out: Approximate Solubility",5.68 mg/mL
same,solubility,"acetonitrile:water (75:25% v/v), 40 °C, organic solvent or mixture, thermodynamic from solid, Acetonitrile:Water (75:25% v/v), read-out: Approximate Solubility",1.05 mg/mL
same,solubility,"anisole, organic solvent or mixture, thermodynamic from solid, anisole, read-out: solubility",25 to 50 mg/mL
same,solubility,"dichloromethane:methanol (50:50% v/v), organic solvent or mixture, thermodynamic from solid, Dichloromethane:Methanol (50:50% v/v), read-out: Approximate Solubility",50 mg/mL
same,solubility,"dichloromethane:methanol (50:50% v/v), organic solvent or mixture, thermodynamic from solid, Dichloromethane:Methanol (50:50% v/v), read-out: Approximate solubility",~50 mg/mL
same,solubility,"dichloromethane:methanol (75:25% v/v), organic solvent or mixture, thermodynamic from solid, Dichloromethane:Methanol (75:25% v/v), read-out: Approximate Solubility",100 mg/mL
same,solubility,"diethyl ether, 40 °C, organic solvent or mixture, thermodynamic from solid, Diethyl ether, read-out: Approximate Solubility",0.002 mg/mL
same,solubility,"dimethylsulfoxide, organic solvent or mixture, thermodynamic from solid, Dimethylsulfoxide, read-out: Approximate Solubility",100 mg/mL
same,solubility,"ethanol, 40 °C, organic solvent or mixture, thermodynamic from solid, Ethanol, read-out: Approximate Solubility",0.276 mg/mL
same,solubility,"ethanol:water (50:50% v/v), 40 °C, aqueous with cosolvent or surfactant or cyclodextrin, thermodynamic from solid, Ethanol:Water (50:50% v/v), read-out: Approximate Solubility",0.0192 mg/mL
same,solubility,"ethyl acetate, 40 °C, organic solvent or mixture, thermodynamic from solid, Ethyl acetate, read-out: Approximate Solubility",0.444 mg/mL
same,solubility,"ethyl formate, 40 °C, organic solvent or mixture, thermodynamic from solid, Ethyl formate, read-out: Approximate Solubility",1.01 mg/mL
same,solubility,"heptane, 40 °C, organic solvent or mixture, thermodynamic from solid, Heptane, read-out: Approximate Solubility",0.0017 mg/mL
same,solubility,"isopropyl acetate, organic solvent or mixture, thermodynamic from solid, Isopropyl acetate, read-out: Approximate Solubility",0.174 mg/mL
same,solubility,"methanol, organic solvent or mixture, thermodynamic from solid, Methanol, read-out: Approximate Solubility",0.437 mg/mL
same,solubility,"methylisobutyl ketone, organic solvent or mixture, thermodynamic from solid, Methylisobutyl ketone, read-out: Approximate Solubility",0.53 mg/mL
same,solubility,"organic solvent or mixture, thermodynamic from solid, remaining 25 solvent systems tested, read-out: solubility",< 5 mg/mL
same,XRPD,"1,4-Dioxane",A
same,XRPD,1-Butanol,P1
same,XRPD,1-Propanol,P1
same,XRPD,2-Butanone (MEK),P1
same,XRPD,2-Ethoxyethanol,P1
same,XRPD,3-Methyl-1-butanol,A
same,XRPD,Acetone,P1
same,XRPD,Acetonitrile:Water (75:25% v/v),A
same,XRPD,Butyl acetate,P1
same,XRPD,Dichloromethane,A
same,XRPD,Dichloromethane:Methanol (50:50% v/v),A
same,XRPD,Dichloromethane:Methanol (75:25% v/v),A
